Values after ≈ are worked out from the molar mass of the structure shown. Residues, ends and D or L forms follow the SMILES beside them.
Legend:
[1] = system: Bacillus subtilis (strain BR151); assay type: cell-based; conditions: LB medium
Method in brief: (§1)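 Broth microdilution MIC in LB; overnight cultures diluted to OD600 0.001 and mixed 1:1 with ⅔-serially diluted samples (stock 1 mg mL^−1 in H2O), 37° C for 18-24 h. MTT (0.1%) added; MIC read by eye as lowest concentration inhibiting visible growth (yellow).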

[2] = system: Escherichia coli (strain DH5α); assay type: cell-based; conditions: LB medium
Method in brief: as §1

[3] = system: human red blood cells (hRBC); assay: Haemolysis assay, minimal haemolytic concentration (MHC); assay type: cell-based; conditions: hRBC in PBS pH 7.4, 4 h, room temperature
Experimental: To determine the minimal haemolytic concentration (MHC) stock solutions of 8 mg/mL of the peptide dendrimers in H2O were prepared and 50 μL were diluted serially by ½ in 50 μL PBS (pH 7.4) in 96-well plate (Cornstar or Nunc, polystyrene, untreated). Human red blood cells (hRBC) were obtained by centrifuging 1.5 mL of whole blood from friendly donors at 3000 rpm for 15 minutes. Plasma was discarded and the pellet was re-suspended in a 15 mL falcon tube up to 5 mL of PBS. The washing was repeated three times and the remaining pellet was re-suspended in 10 mL of PBS at a final hRBC concentration of 5%. The hRBC suspension (50 μL) was added to each well and the plate was incubated at room temperature for 4 hours. Minimal haemolytic concentration (MHC) end points were determined by visual inspection of the wells after the incubation period. Controls on each plate included a blank medium control (50 μl PBS+50 μl of hRBC suspension) and a haemolytic activity control (mQ-deionized water 50 μL+50 μL hRBC suspension).
MIC (minimal inhibitory concentration) and MHC (minimal haemolytic concentration, determined on human red blood cells (hRBC)) values are given in μg/mL. When no detectable haemolytic activity was observed, the last measured concentration was used for calculation of the therapeutic index. TI (therapeutic index)=MHC (μg/ml)/geometric mean of MIC (μg/ml). Larger values indicate greater antimicrobial specificity.

[4] = Proteolytic stability with human serum; assay type: in vitro ADME; conditions: 100 μM peptide, human serum diluted with DMEM, 37 °C, up to 24 h
Experimental: Peptides and peptide dendrimers were prepared as 200 μM stock solution in PBS. 25% Human Serum (diluted with DMEM) was centrifuged at for 15 min at 14000 rpm to remove the lipids and supernatant was collected and incubated for 15 min at 37° C. Proteolysis was initiated upon addition of 50 μL of the test peptide or peptide dendrimer to 50 μL of serum and shaking at 37° C. Final peptide concentration is 100 μM. Reaction mixtures were analyzed after 0, 1, 6, 24 h by addition of ice-cold 10% Trichloroacetic acid (TCA) to precipitate serum proteins. The supernantant was collected for each sample after centrifugation at 14000 rpm for 15 min. and evaporated with a speedvac. After dissolving the solid in 100 μL mQ-H2O they were analyzed by RP-UPLC (flow rate: 1.2 mL/min. gradient: A/D=100/0 to 0/100 in 7.5 min). Conversions of the remaining peptide and peptide dendrimers were calculated by integration of the absorbance at 214 nm by using Chromeleon software.
The peptides were mixed with human serum (previously diluted with DMEM) to a final peptide concentration of 100 μM to determine the stability of AMPDs toward proteases and incubated at 37° C. for 0, 1, 6, or 24 hours. After precipitation of proteins with TCA, the solution was analyzed by analytical RP-UPLC. […] AMPDs MSt-114, MSt-136, MSt-138, MSt-139, MSt-140 and MSt-176 were also checked for their stability. […]

[5] = system: P. aeruginosa PAO1 bacterial suspension; assay: Detection of peptide in the presence of bacteria; assay type: in vitro ADME, Pseudomonas aeruginosa; conditions: 100 μM peptide, P. aeruginosa PAO1 in LB, 37 °C, up to 24 h
Experimental: Peptides and peptide dendrimers were prepared as 200 μM stock solution in H2O. A colony of bacteria was grown in LB-medium overnight at 37° C. The concentration was quantified by measuring absorbance at 600 nm and diluted to OD600=0.2. Degradation was initiated upon addition of 50 μL of the test peptide or peptide dendrimer to 50 μL of the bacterial suspension and shaking at 37° C. Final peptide concentration is 100 μM and final concentration of bacteria is OD600=0.1 (1×10^8 CFU/mL). Reaction mixtures were analyzed after 0, 1, 6, 9, 24 h by heating up to 95° C. for 5 min. followed by centrifugation for 15 min. at 14000 rpm. 50 μL of the supernantant were collected for each sample and 50 μL A were added giving a concentration of 50 μM. 5 μL of 4-Hydroxybenzoic acid (standard) were added before samples were analyzed by RP-UPLC (flow rate: 1.2 mL/min. gradient: A/D=100/0 to 0/100 in 7.5 min). Conversions of the remaining peptide and peptide dendrimers were calculated by integration of the absorbance at 214 nm by using Chromeleon software.
Bacteria were grown in LB overnight and diluted to OD600=0.2. After addition of the peptides to a concentration of 100 μM the samples were incubated for 0, 1, 6, 9, 24 hours at 37° C. After heating the suspension to 95° C. for 5 min and centrifugation the solution was subjected to UPLC and the remaining peptide was analyzed by using Chromeleon software.

[6] = system: Pseudomonas aeruginosa (strain PA01); assay: microbe, parasite or virus in culture; assay type: cell-based; conditions: Pseudomonas aeruginosa, PAO1; LB medium, serial 2/3 dilution, 37 °C, 18-24 h; read-out: MIC P. aeruginosa PAO1
Method in brief: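 Broth microdilution MIC against P. aeruginosa PAO1 in LB: peptides serially diluted by ⅔, bacteria added at OD600 0.001 and incubated 18–24 h at 37 °C. MTT added; MIC is the lowest concentration preventing visible growth.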

[7] = system: Pseudomonas aeruginosa (strain PA01); assay type: cell-based; conditions: 25 μg/mL; 0, 1, 3, 6, 8, 24 h
Experimental: Cell viability was assayed against Pseudomonas aeruginosa (strain PA01). A colony of bacteria was grown in LB-medium overnight at 37° C. The concentration was quantified by measuring absorbance at 600 nm and diluted to OD600=0.1 (1×10^8 CFU/mL). The samples were prepared as stock solutions of 1 mg mL^−1 in H2O and diluted in LB to a concentration of 50 μg/mL in a 96-well microtiterplate (TPP, untreated). The sample solutions (50 μL) were mixed with the diluted bacterial suspension with an OD600 nm of 0.001 (50 μL). […] The plates were incubated at 37° C. for 1, 3, 6, 8 and 24 h. Each time point was assayed on a separate plate. For each test, two columns of the plate were kept for sterility control (SC, broth only) and growth control (GC, broth with bacterial inoculums, no antibiotics). After incubation 15 μL of WST-8 working solution (3.31 mg/mL WST-8 (Ochem Incorporation), 0.074 mg/mL PES (phenazine ethosulfate)) was added to each well and cells were incubated at 37° C. until GC had desired value. After the reaction took place, the final absorbance was read at 450 nm. For calculations, the value of the GC was set to 100% cell viability and the value of the negative control (no bacteria, SC) was set to 0% cell viability. […]
In order to determine the killing kinetics of AMPDs the amount of living bacteria was measured as a function of time after incubation with the AMPDs. […]

[8] = 5(6)-Carboxyfluorescein leakage from lipid vesicles; conditions: 10 mM TRIS, 107 mM NaCl, pH 7.4; peptide added at 50 s
Experimental: (§2) Preparation A thin lipid film was prepared by evaporating a solution of 25 mg Egg PC or Egg PG in 1 mL MeOH/CHCl3 1/1 on a rotary evaporator (rt) and then in vacuo overnight. The resulting film was hydrated with 1 mL buffer (50 mM CF, 10 mM TIRS, 10 mM NaCl, pH 7.4) for 30 min, subjected to freeze-thaw cycles (7×) and extrusion (15×) through a polycarbonate membrane (pore size 100 nm). Extravesicular components were removed by gel filtration (Sephadex G-50) with 10 mM TRIS, 107 mM NaCl, pH 7.4. Final conditions: ˜2.5 mM Egg PC or Egg PG; inside: 50 mM CF, 10 mM TIRS, 10 mM NaCl, pH 7.4; outside: 10 mM TRIS, 107 mM NaCl, pH 7.4.
(§3) Experiment Egg PC or Egg PG stock solutions (37.5 μL) were diluted with a buffer (10 mM TRIS, 107 mM NaCl, pH 7.4) and placed in a thermostated fluorescence cuvette (25° C.) and gently stirred (total volume in the cuvette ˜3000 μL; final lipid concentration ˜31.25 μM). CF efflux was monitored at λem 517 nm (λex 492 nm) as a function of time after addition of 20 μL of peptide dendrimer in buffer (10 mM TRIS, 107 mM NaCl, pH 7.4) with final concentrations of 1, 5, 7.5, 10, 15, 20, 25, 30 μg/mL at t=50 s and 1.2% trition X-100 (30 μL, 0.012% final concentration) at t=300 s. Fluorescence intensities were normalized to fractional emission intensity I(t) using I(t)=(It−I0)/(I∞−I0) where I0 It at peptide dendrimer addition, I∞=It at saturation of lysis.
Bacterial membranes contain relatively large amounts of exposed anionic lipids, while the outer leaflet of the membranes of plants and animals is composed mainly of lipids with no net charge. The charge composition of such membranes can be mimicked with phospholipid vesicles. Large unilamellar vesicles (LUVs) composed of the neutral phospholipid with PC (phosphatidyl choline) or with PG (phosphatidyl glycerol) with negative charges were prepared encapsulating 5(6)-carboxyfluorescein (CF). […] The higher the concentration of MSt-112 the higher is the CF leakage (FIG. 6A). […] Overall the active AMPDs interact with the negatively charged membrane and release the CF.

[9] = as above; conditions: 10 mM TRIS, 107 mM NaCl, pH 7.4; peptide added at 50 s; remark: listed apart in the source
Experimental: as §2, §3

MIC [6] [µg/mL]	SMILES	MIC B. subtilis BR151 [1] [µg/mL]	MIC E. coli DH5α [2] [µg/mL]	MHC (minimal haemolytic concentration) [3]	Stability in human serum (remaining peptide signal, RP-UPLC) [4]	Stability in bacterial suspension (remaining peptide, UPLC) [5]	killing kinetics (bacterial survival over 24 hours) [7]	CF leakage from phosphatidylglycerol LUVs [8]	CF leakage from phosphatidylcholine LUVs [9]
	CC(C)C[C@H](NC(=O)[C@H](CC(C)C)NC(=O)[C@H](CCCCN)NC(=O)[C@H](C)NC(=O)[C@H](CC(C)C)NC(=O)[C@H](CCCCN)NC(=O)[C@H](CCCCN)NC(=O)[C@H](CC(C)C)NC(=O)[C@H](C)NC(=O)[C@H](CCCCN)NC(=O)[C@H](CCCCN)NC(=O)[C@H](Cc1ccc(O)cc1)NC(=O)[C@@H](N)CCCCN)C(N)=O [RHe-9, (KYKKALKKLAKLL), reference compound] (H-KYKKALKKLAKLL-NH2)	4 (≈ 2.59 µM)	<1	not haemolytic	completely disappeared	not detectable after 9 hours			
0.5 (≈ 1.07 µM)	NC[C@H]1O[C@H](O[C@H]2[C@H](O)[C@@H](O[C@H]3O[C@H](CO)[C@@H](O)[C@H](N)[C@H]3O)[C@H](N)C[C@@H]2N)[C@H](N)C[C@@H]1O [Tobramycin]						kill P. aeruginosa immediately	do not show release of CF	no CF release

Reference: patent US10336792B2, “Antimicrobial peptide dendrimers” (priority 2014, dated 2019)
